Experimental data taken from patent US20230242526A1 (Zentaur Therapeutics International Limited, priority 2020, published 2023).

Columns and labels:
[1] = system: human breast squamous HCC1806 cell line; assay: CyQUANT Direct cell proliferation assay, HCC1806; format: cell-based; conditions: HCC1806, 168 h, 7 days
Description: The human ovarian carcinoma OVCAR3 cell line (ATCC HTB-161™) or human breast squamous HCC1806 cell line (ATCC CRL 2335) were obtained from American Type Culture Collection (ATCC), and maintained in culture media according to the supplier's specification.
The CyQUANT® Direct Cell Proliferation Assay Kit (Invitrogen™, catalog No. G35012) was utilized to test the inhibitory activities of the CDK2 inhibitors described in this disclosure against OVCAR3 or HCC1806 tumor cells.
CyQUANT® Direct Cell Proliferation Assay: The spent medium from the purchased tumor cell culture plate was removed and the tumor cells were washed with PBS buffer twice. Trypsin (VWR catalog No. 0458-25G) was added to digest the tumor cells until tumor cells appeared round shaped and to dissociate adherent cells from the plate wall in which they are being cultured. Then RPMI-1640 media (HCC1806, Gibco™ catalog No, A10491-01) with 10% fetal bovine serum (FBS) (Hyclone™ catalog No. SV30160.03), or RPMI-1640 media (OVCAR-3, Gibco™ catalog No. 10370-021) with 20% FBS and 0.01 mg/mL insulin was added to stop the trypsin digestion reaction. The tumor cells were lightly agitated with a liquid transfer pipette to cause tumor cells suspended in the culture media. The cells were counted. The complete medium was used to prepare tumor cell suspension.
OVCAR3 or HCC1806 cells were seeded at 40 μL/well in 384-well plates in growth media containing FBS and cultured 24 hours in the incubator at 37° C., 5% CO2. […] Compound solutions were added by Agilent Bravo liquid handler. […] The control wells contained the growth medium having 0.1% DMSO. Cells were incubated at 37° C., 5% CO2 for 7 days.
CYQUANT Direct Cell Proliferation Assay (Molecular Probes, Eugene, Oreg.) was then performed following manufacturer's instructions to prepare the detection reagents. 50 μL of detection reagent was aliquot and added to each well and the cells were incubated at 37° C. for 1 hr.
The cell culture plates were placed on TECAN M1000 microplate reader to detect the fluorescence intensity at 508 nm excitation and 527 nm emission wavelengths. Graphpad Prism 6.0 software was used for data processing, preparing cell growth curve, calculating percentage inhibition on cell growth. IC50 values were calculated by concentration-response curve fitting utilizing a four-parameter analytical method using GraphPad Prism software.

in vitro = conditions: mouse, microsomes, pH 7.4, t1/2 mouse
Procedure: Human liver microsomes (cat. No. 452161), mouse liver microsomes (cat. No. 452701), were purchased from Corning.
Samples were analyzed using LC-MS/MS using a SCIEX API 4000 mass spectrometer coupled with Agilent HPLC analytical system. After separation on a ZORBAX XDB-C18 column (5 μm, 50×2.1 mm, column No. 50-282) using an acetonitrile-water gradient system, peaks were analyzed by mass spectroscopy (MS) using ESI ionization in Q1 and Q3 scan mode.
The LC and MS are all controlled by Analyst software.
The liver microsomes were incubated with 1.0 μM of the testing compound at 37° C. The incubation mixture contained 100 mM PBS buffer (pH=7.4), 3 mM MgCl2 and 1 mM NADPH. The concentration of liver microsome in the incubation mixture was 0.5 mg/mL for testing compound, and 0.2 mg/mL for MDZ and the total volume is 0.2 mL. […] Aliquots were withdrawn at time points of 0 min, 5 min and 20 min for MDZ. The reactions were terminated by transferring the aliquots to a methanol solution containing the internal standard […] for analytical quantification. The quenched samples were analyzed by LC-MS/MS. The incubations were carried out in duplicates. The metabolic stability of the testing compounds by the liver microsomes of human and mice is expressed as elimination half-life (t1/2). The results are shown as the means of duplicate determinations±SD.

HCC1806 s.c. xenografts = assay: HCC1806 s.c. breast cancer xenograft efficacy (tumor volume, relative tumor volume, tumor weight, TGI); format: in vivo, BALB/c nude mice; conditions: 30 mg/kg P.O. BID; for Tumor Growth Inhibition D3 / Tumor Growth Inhibition D7 / Tumor Growth Inhibition D10 / Tumor Growth Inhibition D14 / Tumor Growth Inhibition D17 / Tumor Growth Inhibition D21: vs control vehicle; for Tumor Growth Inhibition D3 / Tumor volume D3: day 3; for Tumor Growth Inhibition D7 / Tumor volume D7: day 7; for Tumor Growth Inhibition D10 / Tumor volume D10: day 10; for Tumor Growth Inhibition D14 / Tumor volume D14: day 14; for Tumor Growth Inhibition D17 / Tumor volume D17: day 17; for Tumor Growth Inhibition D21 / Tumor volume D21: day 21; for Tumor volume D0 / Tumor volume D3 / Tumor volume D7 / Tumor volume D10 / Tumor volume D14 / Tumor volume D17 / Tumor volume D21 / Tumor weight: group mean; for Tumor volume D0: day 0; for Tumor weight: end of the study (Day 21)
Procedure: The in vivo potency of anti-tumor activities of Comp. 4, Comp. 37, Comp. 5, Comp. 28, Comp. 163, and Comp. 164 have been evaluated on the growth of HCC1806 s.c. xenografts in BALB/c nude mice.
The testing compounds Comp. 4, Comp. 37, Comp. 5, Comp. 28, Comp. 163, and Comp. 164 were prepared according the synthetic routes set forth in the above Examples. The testing formulations for compounds Comp. 4, Comp. 37, Comp. 5, Comp. 28, Comp. 163, and Comp. 164 were prepared as liquid formulation in a liquid vehicle containing 0.1% Tween-80 (purchased form Sinopharm Chemical Reagent Co., Ltd, Lot No. 20190322), 0.5% methyl cellulose (purchased from SIGMA, Lot No. SLBR8963V) in water.
A total of 42+8 female BALB/c nude mice were ordered from Shanghai LC Laboratory Animal Co. Ltd. The animals were specific pathogen free and approximately 4-5 weeks old upon arrival at PharmaLegacy Laboratories.
HCC1806 cell cultures were maintained at 37° C. under 5% CO2 in RPMI-1640 medium supplemented with 10% FBS and were subsequently cultured within 10 passages before inoculated into the mice.
When the average tumor volume reached 80-120 mm^3, 42 tumor-bearing mice were randomized into 7 groups (6 mice per group) according to tumor volume. The grouping day was defined as Day 0. Treatment was applied immediately after grouping animals on the same day.
The body weight of the testing animals were measured twice a week after grouping. Tumor volumes by the length and width of the tumor were measured by electric calipers and the tumor volume (V) was calculated as follows: V=(length×width^2)/2. The individual relative tumor volume (RTV) was calculated as follows: RTV=Vt/V0, where Vt was the volume on each day, and V0 was the volume at the beginning of the treatment.
Tumors were collected at the end of the study (Day 21), the mice were sacrificed. Tumor was collected, weighed, photographed.
Results were expressed as mean±S.E.M. Comparisons between two groups were made by corresponding test, p<0.05 were considered to be significant.

| IC50 [1] [nM] | half-life at 1 μM (in vitro) [min] | SMILES | tumor volume compared with G1 vehicle on each day (HCC1806 s.c. xenografts) | tumor weight at the end of the study, in words (HCC1806 s.c. xenografts) | Tumor Growth Inhibition D3 (HCC1806 s.c. xenografts) [%] | Tumor Growth Inhibition D7 (HCC1806 s.c. xenografts) [%] | Tumor Growth Inhibition D10 (HCC1806 s.c. xenografts) [%] | Tumor Growth Inhibition D14 (HCC1806 s.c. xenografts) [%] | Tumor Growth Inhibition D17 (HCC1806 s.c. xenografts) [%] | Tumor Growth Inhibition D21 (HCC1806 s.c. xenografts) [%] | Tumor volume D0 (HCC1806 s.c. xenografts) [mm^3] | Tumor volume D3 (HCC1806 s.c. xenografts) [mm^3] | Tumor volume D7 (HCC1806 s.c. xenografts) [mm^3] | Tumor volume D10 (HCC1806 s.c. xenografts) [mm^3] | Tumor volume D14 (HCC1806 s.c. xenografts) [mm^3] | Tumor volume D17 (HCC1806 s.c. xenografts) [mm^3] | Tumor volume D21 (HCC1806 s.c. xenografts) [mm^3] | Tumor weight (HCC1806 s.c. xenografts) [g] |
| --- | --- | --- | --- | --- | --- | --- | --- | --- | --- | --- | --- | --- | --- | --- | --- | --- | --- | --- |
| 52.1 | 22 | C[C@@]1(O)CCC[C@H]1n1c(=O)c(C(F)F)cc2cnc(NC3CCN(S(C)(=O)=O)CC3)nc21 [Comp. 5, (−)-6-(difluoromethyl)-8-((1R,2R)-2-hydroxy-2-methylcyclopentyl)-2-((1-(methylsulfonyl)piperidin-4-yl)amino)pyrido[2,3-d]pyrimidin-7(8H)-one, reference compound] | significant smaller tumor volume from day 7 to day 21 | lighter tumor but no statistic significance | 37.46 | 42.30 | 39.66 | 42.80 | 43.13 | 44.1 | 109.77 | 225.24 | 405.37 | 654.51 | 880.11 | 1139.14 | 1327.79 | 2.22 |
| 41.5 | 16.5 | Cc1cc2cnc(NC3CCN(S(C)(=O)=O)CC3)nc2n([C@@H]2CCC[C@@]2(C)O)c1=O [Comp. 4, (−)-8-(2-hydroxy-2-methylcyclopentyl)-6-methyl-2-((1-(methylsulfonyl)piperidin-4-yl)amino)pyrido[2,3-d]pyrimidin-7(8H)-one, reference compound] | – | – | 30.25 | 23.11 | −1.66 | 6.35 | 9.13 | 6.55 | 112.95 | 241.73 | 506.86 | 1030.80 | 1374.19 | 1757.63 | 2149.25 | 3.63 |
| 35 | 72 | [2H]C([2H])([2H])c1cc2cnc(NC3CCN(S(C)(=O)=O)CC3)nc2n([C@@H]2CCC[C@@]2(C)O)c1=O [Comp. 37, (−)-8-((1R,2R)-2-hydroxy-2-methylcyclopentyl)-6-(methyl-d3)-2-((1-(methylsulfonyl)piperidin-4-yl)amino)pyrido[2,3-d]pyrimidin-7(8H)-one] | significant smaller tumor volume from day 3 to day 21 | lighter tumor but no statistic significance | 42.52 | 49.20 | 46.10 | 44.43 | 48.73 | 46.8 | 109.89 | 216.01 | 370.15 | 596.52 | 858.29 | 1037.86 | 1269.08 | 2.10 |
| 75 | 182 | [2H]C(F)(F)c1cc2cnc(NC3CCN(S(C)(=O)=O)CC3)nc2n([C@@H]2CCC[C@@]2(C)O)c1=O [Comp. 28, (−)-6-(difluoromethyl-d)-8-((1R,2R)-2-hydroxy-2-methylcyclopentyl)-2-((1-(methylsulfonyl)piperidin-4-yl)amino)pyrido[2,3-d]pyrimidin-7(8H)-one] | – | – | 15.44 | 11.52 | 15.19 | 12.60 | 26.69 | 34.01 | 111.13 | 267.25 | 564.40 | 876.82 | 1288.11 | 1438.12 | 1549.07 | 2.84 |
